Test results reported in patent US6843854B2, “Method and apparatus for separating a component from a mixture” (Purdue Research Foundation, priority 2002, dated 2005).
In brackets after ≈: the same amount, converted by molar mass.

Columns and labels:
physchem = experiment: physchem
Protocol: The solubility data for each system tested in Table DD, was determined by the following method. First, a measured amount of dry crude mixture (39.3% clari, 37.5% 6,11, and 23.2% other impurities) was added to a measured volume of the mobile phase solvent being used for the particular test case and the mixture was stirred. Heat was added while the mixture was being stirred because dissolution of Clarithromycin and 6,11 is very slow at room temperature. The solution temperature was allowed to approach the boiling temperature of the solvent. The solution was held constant at that temperature until no more solid material was present in the mixture (complete dissolution). […]
In addition to the assembly of the physical system 500, the maximum feed concentration allowed by solubility must be known to optimize the operating parameters with the non-linear, non-equilibrium equations. The solubility was determined in the manner described earlier. Next, the optimal feed concentration was determined and was created by diluting the maximum feed concentration solution. […]
The feed solutions for Experiment #1 were prepared by mixing 5.6 g dry crude (39.3% clari, 37.5% 6,11, 23.2% other) Clarithromycin and 6,11 with 1000 ml of 80% methanol. […] Finally, this solution was filtered to remove any remaining solids and the volume measured to insure there was not significant evaporation. […]

[1] = Solubility in Ethanol/water solutions (excess solid stirred four hours, filtered, HPLC)
Protocol: The relative solubilities of Clarithromycin and 6,11 at various percentages of Ethanol in the Ethanol/water solution provide a solubility curve for both Clarithromycin and 6,11. The Ethanol used is 200 proof and is available from McCormick Distilling Co. in Weston, Mass. The water used is distilled deionized water obtained from a MILLI-Q™ system available from Millipore located in Bedford, Mass. The solubilities of Clarithromycin and 6,11 are determined by adding an excess amount of the component being tested to the tested Ethanol/water solution and stirring the mixture for four hours at approximately room temperature (24 C.). The resultant solution is then filtered and assayed for concentration using HPLC (high performance liquid chromatography).
Clarithromycin solubility curve 90 was found using pure Clarithromycin. 6,11 solubility curve 92 was found using a binary mixture of Clarithromycin and 6,11.

| SMILES | solubility limit (physchem) [µg/mL] | solubility (physchem; 24 °C, organic solvent or mixture, thermodynamic from solid, solubility limit) [µg/mL] | solubility ([1]; Ethanol percentages below about 60%) | Ethanol content of the Ethanol/water solution at maximum solubility ([1]; approximately room temperature (24 C.), FIG. 8) | solubility ([1]; various Ethanol/water solutions, approximately room temperature (24 C.), FIG. 8) |
| --- | --- | --- | --- | --- | --- |
| CC[C@H]1OC(=O)[C@H](C)[C@@H](O[C@H]2C[C@@](C)(OC)[C@@H](O)[C@H](C)O2)[C@H](C)[C@@H](O[C@@H]2O[C@H](C)C[C@H](N(C)C)[C@H]2O)[C@](C)(OC)C[C@@H](C)C(=O)[C@H](C)[C@@H](OC)[C@]1(C)O [6,11, 6,11-O-methyl erythromycin A] | 3030 (≈ 3.98 mM) |  |  |  |  |
| CC[C@H]1OC(=O)[C@H](C)[C@@H](O[C@H]2C[C@@](C)(OC)[C@@H](O)[C@H](C)O2)[C@H](C)[C@@H](O[C@@H]2O[C@H](C)C[C@H](N(C)C)[C@H]2O)[C@](C)(OC)C[C@@H](C)C(=O)[C@H](C)[C@@H](O)[C@]1(C)O [Clarithromycin, 6-O-methyl erythromycin A] |  | 2460 (≈ 3.29 mM) | very small | about 80 % Ethanol | higher degree of solubility than 6,11 |
